# In patent publication US10064858B2, “Methods and compositions for treating bacterial infections with iron chelators” (THE UNITED STATES OF AMERICA, AS REPRESENTED BY THE …, priority 2011, dated 2018):
# Like-named read-outs stand apart in the source and are kept apart here.
# Assays:
# Type in all cases: cell-based
# E. coli EC35218 = test: Time-kill assay in CAMHB; conditions: CAMHB
# Procedure: (§1) Reductions in colony forming units (CFU)/mL were determined over time (time-kill assay) after exposure to VK28 and deferiprone (DFP), the two iron chelators that performed best in MIC assays when compared to controls. To better represent the iron content found in the human body, MIC and time-kill assays were also determined in minimal media and tissue culture media. Time-Kill assays were performed as previously described in G. P. Neupane et al., “In vitro time-kill activities of ciprofloxacin alone and in combination with the iron chelator deferasirox against Vibrio vulnificus,” European Journal of Clinical Microbiology and Infectious Diseases, 407-410 (2010); and R. L. White, et al., “Comparison of Three Different In Vitro Methods of Detecting synergy: Time-Kill, Checkerboard, and E test,” Journal of Antimicrobial Agents and Chemotherapy, 1914-1918 (1996). Initial inocula, for example 1×10^6 CFU/mL or 1×10^7 CFU/mL were challenged with iron chelator with and/or without an antibiotic. Cells were allowed to grow in CAMHB at 37° C. for 24 hours. Time-kill results were analyzed by determining the change in log 10 numbers of CFU/ml at 0, 6, and 24 h, compared to counts at 0 h. Antimicrobials were considered bactericidal at the lowest concentration that reduced the size of the original inoculum by >3 log 10 CFU/ml (99.9%) over each of the time periods and were considered bacteriostatic if the inoculum's size was reduced by 0 to <3 log 10 CFU/ml.
# In this example, time-kill assays were performed as described in Example 9 against different multi-drug resistant bacteria, namely E. coli and MRSA.
# In this example, time-kill assays were performed as described in Example 9 using ApoL1 as the iron chelator against two different E. coli strains. […] Time-kill results were analyzed by determining the change in log 10 numbers of CFU/mL at 6 and 24 hours.
# In this example, time-kill assays were performed as described in Example 9 using Apo6619 as the iron chelator in combination with Rifampin against E. coli 35718. […] Time-kill results were analyzed by determining the change in log 10 numbers of CFU/mL at 0, 5 and 24 hours.
# [1] = test system: multi-drug resistant bacterial species; test: Time kill method, synergy with rifampin (summary)
# Procedure: as §1
# [2] = test system: clinical isolates of A. baumannii; test: MIC for clinical isolates in RPMI (low iron) media (Table 4); parameters: key to MIC of Iron Chelators: NG = no growth in table 4; conditions: for MIC: Acinetobacter baumannii
# Procedure: (§2) […] […] Tests were performed in triplicate. MIC of iron chelators were determined for noscomial ESKAPE pathogens.
# For a number of strains, the iron chelators produced no growth of bacteria (NG).
# E. coli [3] = test: MIC in RPMI1640 media (Table 2)
# Procedure: as §2
# (§3) This media is closer to the iron levels in the human body. MICs are in ug/mL.
# Acinetobacter baumannii [4] = test: MIC in RPMI1640 media (Table 2)
# Procedure: as §2, §3
# K. pneumonia [5] = test: MIC in RPMI1640 media (Table 2); conditions: Klebsiella pneumoniae
# Procedure: as §2, §3
# P. aeruginosa [6] = test: MIC in RPMI1640 media (Table 2); conditions: Pseudomonas aeruginosa
# Procedure: as §2, §3
# E. coli [7] = test: MIC, CLSI microdilution (Tables 1 and 6); conditions: Escherichia coli, Table 1, read-out: MIC of Iron Chelators
# Procedure: (§4) The minimal inhibitory concentration (MIC) of non-toxic iron chelators was determined against standard strains of MDR bacteria and clinical isolates according to the guidelines of the Clinical and Laboratory Standards Institute (CLSI).
# (§5) Individual MICs were determined following the microdilution method recommended by CLSI in cationic-adjusted Mueller-Hinton Broth (CAMHB), or M9 media. […] Tests were performed in triplicate. MIC of iron chelators were determined for noscomial ESKAPE pathogens.
# (§6) MIC were determined in CAMHB media as described above in Example 8.
# Acinetobacter baumannii [8] = test: MIC, CLSI microdilution (Tables 1 and 6)
# Procedure: as §4, §5, §6
# K. pneumonia [9] = test: MIC, CLSI microdilution (Tables 1 and 6); conditions: Klebsiella pneumoniae, Table 1, read-out: MIC of Iron Chelators
# Procedure: as §4, §5, §6
# P. aeruginosa [10] = test: MIC, CLSI microdilution (Tables 1 and 6); conditions: Pseudomonas aeruginosa, Table 1, read-out: MIC of Iron Chelators
# Procedure: as §4, §5, §6
# S. aureus = test: MIC, CLSI microdilution (Tables 1 and 6); conditions: Staphylococcus aureus, Table 1, read-out: MIC of Iron Chelators
# Procedure: as §4, §5, §6
# [11] = 1.5 MIC ApoL1 in combination with ¾MIC rifampin
# [12] = AB3638, read-out: MIC of Iron Chelators
# [13] = AB3806, read-out: MIC of Iron Chelators
# [14] = AB4025, read-out: MIC of Iron Chelators
# [15] = AB4026, read-out: MIC of Iron Chelators
# [16] = AB4027, read-out: MIC of Iron Chelators
# [17] = AB4052, read-out: MIC of Iron Chelators
# [18] = AB4269, read-out: MIC of Iron Chelators
# [19] = AB4448, read-out: MIC of Iron Chelators
# [20] = AB4456, read-out: MIC of Iron Chelators
# [21] = AB4490, read-out: MIC of Iron Chelators
# [22] = AB4498, read-out: MIC of Iron Chelators
# [23] = AB4795, read-out: MIC of Iron Chelators
# [24] = AB4857, read-out: MIC of Iron Chelators
# [25] = AB4878, read-out: MIC of Iron Chelators
# [26] = AB4932, read-out: MIC of Iron Chelators
# [27] = AB4957, read-out: MIC of Iron Chelators
# [28] = AB4991, read-out: MIC of Iron Chelators
# [29] = AB5001, read-out: MIC of Iron Chelators
# [30] = AB5075, read-out: MIC of Iron Chelators
# [31] = AB5197, read-out: MIC of Iron Chelators
# [32] = AB5256, read-out: MIC of Iron Chelators
# [33] = AB5674, read-out: MIC of Iron Chelators
# [34] = AB5711, read-out: MIC of Iron Chelators
# [35] = Escherichia coli, 35718, read-out: MIC of Iron Chelators
# [36] = Escherichia coli, ATCC43888, ATCC 43888 (0157:H7), read-out: MIC of Iron Chelators
# [37] = ATCC17978, ATCC 17978, read-out: MIC of Iron Chelators
# [38] = ATCC19606, ATCC 19606, read-out: MIC of Iron Chelators
# [39] = ATCC700603, ATCC 700603, read-out: MIC of Iron Chelators
# [40] = BAA2146, BAA-2146, read-out: MIC of Iron Chelators
# [41] = ATCC27853, ATCC 27853, read-out: MIC of Iron Chelators
# [42] = PAO1, read-out: MIC of Iron Chelators
# [43] = ATCC43888, ATCC 43888 (0157:H7)
# [44] = ATCC17978, ATCC 17978, Table 1, read-out: MIC of Iron Chelators
# [45] = ATCC19606, ATCC 19606, Table 1, read-out: MIC of Iron Chelators
structure (smiles),measurement,setting,value
"Cc1c(O)c(=O)ccn1C [ApoL1, 3-hydroxy-1,2-dimethyl-4(1H)-pyridone]",reduction in CFU/mL,E. coli EC35218; [11],greater than 3 log 10
same,time-kill effect,E. coli EC35218; [11],bactericidal (considered bactericidal at the lowest concentration that reduced the size of the original inoculum by >3 log 10 CFU/ml (99.9%))
same,time-kill effect,E. coli EC35218; 1.5 MIC Iron Chelator alone,bacteriostatic (considered bacteriostatic if the inoculum's size was reduced by 0 to <3 log 10 CFU/ml)
same,"synergy with rifampin, time kill method",[1],strong synergy
same,MIC of Iron Chelators,[2]; AB967,NG
same,MIC of Iron Chelators,[2]; AB2828,NG
same,MIC of Iron Chelators,[2]; AB3340,NG
same,MIC of Iron Chelators,[2]; AB3560,NG
same,MIC of Iron Chelators,[2]; AB3785,NG
same,MIC of Iron Chelators,[2]; AB3917,NG
same,MIC of Iron Chelators,[2]; AB3927,NG
same,MIC,[2]; [12],125 µg/mL
same,MIC,[2]; [13],125 µg/mL
same,MIC,[2]; [14],125 µg/mL
same,MIC,[2]; [15],125 µg/mL
same,MIC,[2]; [16],125 µg/mL
same,MIC,[2]; [17],125 µg/mL
same,MIC,[2]; [18],125 µg/mL
same,MIC,[2]; [19],125 µg/mL
same,MIC,[2]; [20],125 µg/mL
same,MIC,[2]; [21],125 µg/mL
same,MIC,[2]; [22],125 µg/mL
same,MIC,[2]; [23],125 µg/mL
same,MIC,[2]; [24],125 µg/mL
same,MIC,[2]; [25],250 µg/mL
same,MIC,[2]; [26],64 µg/mL
same,MIC,[2]; [27],125 µg/mL
same,MIC,[2]; [28],125 µg/mL
same,MIC,[2]; [29],125 µg/mL
same,MIC,[2]; [30],125 µg/mL
same,MIC,[2]; [31],125 µg/mL
same,MIC,[2]; [32],125 µg/mL
same,MIC,[2]; [33],125 µg/mL
same,MIC,[2]; [34],64 µg/mL
same,MIC,E. coli [3]; [35],500 µg/mL
same,MIC,E. coli [3]; [36],250 µg/mL
same,MIC,Acinetobacter baumannii [4]; [37],64 µg/mL
same,MIC,Acinetobacter baumannii [4]; [38],125 µg/mL
same,MIC,K. pneumonia [5]; [39],250 µg/mL
same,MIC,K. pneumonia [5]; [40],250 µg/mL
same,MIC,P. aeruginosa [6]; [41],500 µg/mL
same,MIC,P. aeruginosa [6]; [42],125 µg/mL
same,MIC,"E. coli [7]; ATCC35218, ATCC 35218",500 µg/mL
same,MIC,E. coli [7]; [43],500 µg/mL
same,MIC,Acinetobacter baumannii [8]; [44],125 µg/mL
same,MIC,Acinetobacter baumannii [8]; [45],125 µg/mL
same,MIC,"K. pneumonia [9]; ATCC700603, ATCC 700603",500 µg/mL
same,MIC,"K. pneumonia [9]; BAA2146, BAA-2146",250 µg/mL
same,MIC,"P. aeruginosa [10]; ATCC27853, ATCC 27853",> 500 µg/mL
same,MIC,P. aeruginosa [10]; PAO1,250 µg/mL
same,MIC,"S. aureus; ATCC25923, ATCC 25923",> 500 µg/mL
same,MIC,S. aureus; ATCC 43300 (MRSA),> 500 µg/mL
"OCCN1CCN(Cc2ccc(O)c3ncccc23)CC1 [VK28, 5-(4-(2-hydroxyethyl)piperazin-1-ylmethyl)-8-hydroxyquinoline]",time-kill effect,E. coli EC35218; 1×MIC and 2×MIC VK28,bacteriostatic (considered bacteriostatic if the inoculum's size was reduced by 0 to <3 log 10 CFU/ml)
same,"synergy with rifampin, time kill method",[1],strong synergy
same,MIC of Iron Chelators,[2]; AB967,NG
same,MIC of Iron Chelators,[2]; AB2828,NG
same,MIC of Iron Chelators,[2]; AB3340,NG
same,MIC of Iron Chelators,[2]; AB3560,NG
same,MIC of Iron Chelators,[2]; AB3927,NG
same,MIC,[2]; [12],8 µg/mL
same,MIC,"[2]; AB3785, read-out: MIC of Iron Chelators",8 µg/mL
same,MIC,[2]; [13],8 µg/mL
same,MIC,"[2]; AB3917, read-out: MIC of Iron Chelators",4 µg/mL
same,MIC,[2]; [14],8 µg/mL
same,MIC,[2]; [15],8 µg/mL
same,MIC,[2]; [16],8 µg/mL
same,MIC,[2]; [17],8 µg/mL
same,MIC,[2]; [18],8 µg/mL
same,MIC,[2]; [19],8 µg/mL
same,MIC,[2]; [20],8 µg/mL
same,MIC,[2]; [21],8 µg/mL
same,MIC,[2]; [22],8 µg/mL
same,MIC,[2]; [23],4 µg/mL
same,MIC,[2]; [24],8 µg/mL
same,MIC,[2]; [25],8 µg/mL
same,MIC,[2]; [26],8 µg/mL
same,MIC,[2]; [27],8 µg/mL
same,MIC,[2]; [28],8 µg/mL
same,MIC,[2]; [29],8 µg/mL
same,MIC,[2]; [30],8 µg/mL
same,MIC,[2]; [31],4 µg/mL
same,MIC,[2]; [32],8 µg/mL
same,MIC,[2]; [33],8 µg/mL
same,MIC,[2]; [34],8 µg/mL
same,MIC,E. coli [3]; [35],32 µg/mL
same,MIC,E. coli [3]; [36],8 µg/mL
same,MIC,Acinetobacter baumannii [4]; [37],32 µg/mL
same,MIC,Acinetobacter baumannii [4]; [38],8 µg/mL
same,MIC,K. pneumonia [5]; [39],16 µg/mL
same,MIC,K. pneumonia [5]; [40],16 µg/mL
same,MIC,P. aeruginosa [6]; [41],16 µg/mL
same,MIC,P. aeruginosa [6]; [42],16 µg/mL
same,MIC,"E. coli [7]; ATCC35218, ATCC 35218",> 500 µg/mL
same,MIC,E. coli [7]; [43],> 500 µg/mL
same,MIC,Acinetobacter baumannii [8]; [44],125 µg/mL
same,MIC,Acinetobacter baumannii [8]; [45],125 µg/mL
same,MIC,"K. pneumonia [9]; ATCC700603, ATCC 700603",> 500 µg/mL
same,MIC,"K. pneumonia [9]; BAA2146, BAA-2146",> 500 µg/mL
same,MIC,"P. aeruginosa [10]; ATCC27853, ATCC 27853",> 500 µg/mL
same,MIC,P. aeruginosa [10]; PAO1,> 500 µg/mL
same,MIC,"S. aureus; ATCC25923, ATCC 25923",250 µg/mL
same,MIC,S. aureus; ATCC 43300 (MRSA),250 µg/mL
